Test results reported in PubChem BioAssay (NCI).
Where “and” joins values, the source holds several entries; their conditions need not be identical. Equal values may be shown once.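 Cultured in 96-well plates, cells were exposed to test compound for 48 hours across five concentrations. GI50 is the concentration that inhibits growth by half. TGI marks complete inhibition of growth.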

What was measured:
Assay in all cases: inhibition of tumour cell growth, NCI panel, 48 h
COLO 205 colon = system: COLO 205 colon
HCT-15 colon = system: HCT-15 colon
HS 578T breast = system: HS 578T breast
MOLT-4 leukemia = system: MOLT-4 leukemia
NCI-H522 lung = system: NCI-H522 lung
OVCAR-5 ovarian = system: OVCAR-5 ovarian
SNB-19 CNS = system: SNB-19 CNS
SR leukemia = system: SR leukemia
UACC-257 melanoma = system: UACC-257 melanoma
UACC-62 melanoma = system: UACC-62 melanoma

| Compound | GI50 (COLO 205 colon) | TGI (COLO 205 colon) | GI50 (HCT-15 colon) | TGI (HCT-15 colon) | GI50 (HS 578T breast) | TGI (MOLT-4 leukemia) | GI50 (NCI-H522 lung) | TGI (NCI-H522 lung) | GI50 (OVCAR-5 ovarian) | TGI (OVCAR-5 ovarian) | GI50 (SNB-19 CNS) | TGI (SNB-19 CNS) | TGI (SR leukemia) | GI50 (UACC-257 melanoma) | TGI (UACC-257 melanoma) | GI50 (UACC-62 melanoma) | TGI (UACC-62 melanoma) | TGI (HS 578T breast) | GI50 (MOLT-4 leukemia) | GI50 (SR leukemia) |
| --- | --- | --- | --- | --- | --- | --- | --- | --- | --- | --- | --- | --- | --- | --- | --- | --- | --- | --- | --- | --- |
| CC1OC(CC(=O)O)Cc2c1c(O)c1c(O)cc(-c3cc(=O)c4c(=O)c5c(c(=O)c=4c3=O)CC(CC(=O)O)OC5C)c(O)c1c2O (configuration not stated) | 29.9 µM | 18.1 µM and 92.9 µM | 61.6 µM | 16.7 µM | 38.3 µM | 21.7 µM | 17.8 µM | 18.9 µM and 64.7 µM | 53.1 µM | > 91.1 µM | 66.6 µM | > 100 µM | 53.9 µM | 21.8 µM | 26.9 µM and 66.9 µM | 48.9 µM | 17.7 µM |  |  |  |
| FC(F)(F)c1nc(SCc2ccc(Cl)cc2)n[nH]1 |  | > 100 µM |  | > 100 µM |  | > 100 µM |  | > 100 µM |  | > 100 µM |  | > 100 µM | > 100 µM |  | > 100 µM |  | > 100 µM | > 100 µM |  |  |
| CC(C)=Cc1cccc2[nH]c(O)c(N=Nc3ccc(S(N)(=O)=O)cc3)c12 | > 9.93 µM | > 25 µM | 4.32 µM | > 25 µM | 0.506 µM | > 25 µM | > 25 µM | > 25 µM | > 25 µM | > 25 µM | > 14.6 µM | > 25 µM | > 25 µM | > 25 µM | > 25 µM | > 25 µM | > 25 µM | 16.4 µM | 1.74 µM | 0.593 µM |
| COc1ccc2nc3c(cc2c1)C(=O)CC(c1ccccc1)C3 (configuration not stated) | 0.732 µM | > 100 µM | 2.19 µM | > 100 µM | 0.882 µM | > 100 µM | 0.401 µM | > 67.4 µM | 6.83 µM | > 100 µM | 2.94 µM | > 100 µM | > 100 µM | > 100 µM | > 100 µM | 0.601 µM | > 100 µM | > 100 µM | 0.364 µM | 0.379 µM |
| C/C(CC(C)(C)N1CC1)=N\NC(=O)Nc1cccc2ccccc12 | 2.39 µM | 7.19 µM | 3.24 µM | 17.4 µM | 2.45 µM | 6.29 µM | 2.04 µM | 5.36 µM | 6.04 µM | 23 µM | 5.14 µM | 18.1 µM | 6.13 µM | 4.09 µM | 16.2 µM | 4.06 µM | 15.8 µM | 24.7 µM | 2.59 µM | 2.02 µM |
| O=S(=O)(O)n1ccnc1 (tested in a mixture with another compound) |  | > 100 µM |  | > 100 µM |  | > 100 µM |  | > 100 µM |  | > 100 µM |  | > 100 µM | > 100 µM |  | > 100 µM |  | > 100 µM | > 100 µM |  |  |
| C#CCOC(=O)/C=C/C(=O)Oc1ccc2c(C)cc(=O)oc2c1 | > 100 µM | > 100 µM | > 100 µM | > 100 µM | > 100 µM | > 100 µM | > 100 µM | > 100 µM | > 100 µM | > 100 µM | > 100 µM | > 100 µM | > 100 µM | > 100 µM | > 100 µM | > 100 µM | > 100 µM | > 100 µM | > 100 µM | > 100 µM |
| CN[C@@H](Cc1cccc2ccccc12)C(=O)N[C@@H](CC(C)C)B(O)O | 0.0427 µM | 0.17 µM | 0.0172 µM | 0.0459 µM and 0.406 µM |  | 0.0466 µM |  | < 0.0103 µM | 0.0187 µM | 0.0518 µM and 0.0204 µM | 0.0356 µM |  | 0.281 µM | 0.0169 µM and 0.0131 µM | 0.0337 µM and 0.04 µM | 0.017 µM | 0.0344 µM and < 0.0154 µM | 0.0577 µM |  | 0.0163 µM |
| CCOC(=O)c1c(-c2ccc(OC)c(O)c2)c(C#N)c(=S)n(C2OC(COC(C)=O)C(OC(C)=O)C(OC(C)=O)C2OC(C)=O)c1-c1ccccc1 (configuration not stated) | 27.9 µM and > 100 µM | > 100 µM | 43.1 µM and > 100 µM | > 100 µM | 38.8 µM and > 100 µM | > 100 µM |  | 45.7 µM |  | > 100 µM |  | > 100 µM | > 100 µM | 23.4 µM and > 100 µM | 60.8 µM and > 100 µM | 17.1 µM and > 100 µM | 34.1 µM and > 100 µM | > 100 µM | 38.3 µM and > 100 µM |  |
| CCN1C(=O)N(CC)C2C1NN=c1s/c(=C\c3ccc(C(F)(F)F)cc3)c(=O)n12 (configuration not stated) | 0.256 µM | 0.888 µM | 0.318 µM | > 35.6 µM | 0.349 µM | 16.3 µM | 0.263 µM | 4.13 µM | 0.619 µM | > 43.8 µM | 0.647 µM | > 44.8 µM | 5.77 µM | 7.49 µM | 35.4 µM | 0.577 µM | > 44.7 µM | > 42.5 µM | 0.417 µM | 0.204 µM |
| CC[C@H]1CCC/C=C/[C@@H]2C[C@H](O)C[C@H]2[C@H](O)/C=C/C(=O)O1 | 0.0213 µM | 0.0395 µM | 0.0446 µM |  |  | > 100 µM | 0.211 µM | 0.634 µM | 0.0464 µM | > 100 µM | 0.0607 µM | > 100 µM | 0.115 µM | 0.0802 µM | > 100 µM | 0.0384 µM | > 37.7 µM | > 100 µM | 0.0354 µM | 0.0292 µM |
| CCc1cccc(NC(=O)Nc2ccc(Oc3ccc4nc(NC(=O)OC)[nH]c4c3)cc2)c1 | 6.8 µM | > 17.9 µM | 2.93 µM | > 25 µM | 1.41 µM | > 25 µM | 0.921 µM | 14.8 µM | 15 µM | > 25 µM | 10.1 µM | > 25 µM | > 25 µM | 3.58 µM | > 22.3 µM | 1.93 µM | 10.1 µM | 19.2 µM | 10.4 µM | 0.149 µM |
| CCCCC(OC(=O)c1ccc(N)cc1)C(=O)Nc1nc(CC(=O)OCC)cs1 (configuration not stated) | 31.6 µM | > 100 µM | 40.2 µM | > 100 µM | 43.4 µM | > 100 µM | 33.9 µM | > 100 µM | > 100 µM | > 100 µM | 49.9 µM | > 100 µM | > 100 µM | 42.8 µM | > 100 µM | 51.6 µM | > 100 µM | > 100 µM | 35.8 µM | 42.8 µM |
| COc1ccc(-c2cc(-c3ccc(OC)cc3)nc(NCCCNc3ccnc4cc(Cl)ccc34)n2)cc1 | 1.72 µM | 3.58 µM | 1.68 µM | 3.45 µM | 14.9 µM | 6.09 µM | 1.92 µM | 3.81 µM | 1.67 µM | 3.14 µM | 1.96 µM | 3.99 µM | 5.86 µM | 1.96 µM | 3.83 µM | 2.76 µM | 7.26 µM | 44.8 µM | 1.84 µM | 1.43 µM |
